Laboratory results as given in patent US10085966B2, “Compositions and methods for skin care” (Antipodean Pharmaceuticals, Inc., priority 2008, dated 2018).

Assays:
Assay type in all cases: cell-based
[1] = test system: ERK2; test: UV irradiation-induced ERK2 phosphorylation in cultured human keratinocytes
Source text: (§1) Ultraviolet (UV) irradiation causes skin photoaging and has been reported to activate mitogen-activated protein (MAP) kinase signal transduction pathways. (Fisher et al., 1998 J. Clin. Invest. 101:1432; Kang et al., 2003 J. Invest. Dermatol. 120:835). The mechanism of UV activation of the epidermal growth factor receptor (EGFR) in such pathways remains unknown, although a role for ROS has been implicated (Xu et al., 2006 Am. J. Pathol. 169:823; Xu et al., 2006 J. Biol. Chem. 281:27389). This Example describes an in vitro model of UV-induced signal transduction in human keratinocytes. Publications describing exemplary materials and methods that were adapted to perform these experiments include e.g., Pilcher et al., 1997 J. Cell Biol. 137:1445; Notary et al., 2000 J. Cell Biol. 149:1309; Netzel-Arnett et al., 2002 J. Biol. Chem. 277:45154; Fisher et al., 2002 Arch Dermatol. 138:1462; Kang et al., 2003 J. Invest. Dermatol. 120:835; Xu et al., 2006 Am J Pathol. 169:823; Xu et al., 2006 J Biol. Chem 281:27389.
(§2) Exposure of cultured human keratinocytes to UV irradiation activated ERK MAP kinase, as evidenced by elevated levels of phosphorylated ERK polypeptide in immunoprecipitates from UV-irradiated keratinocytes relative to untreated control keratinocytes. (FIG. 4)

[2] = test system: ERK1; test: UV irradiation-induced ERK1 phosphorylation in cultured human keratinocytes
Source text: as §1, §2

[3] = test system: human skin fibroblasts; test: ROS production by human skin fibroblasts in collagenase-fragmented three-dimensional collagen lattices; conditions: 1 nM, relative to controls (FIG. 2)
Source text: (§3) In photoaged human skin in vivo, skin wrinkling was accompanied by elevated collagenase levels that stimulated collagen fragmentation and ROS production. This Example describes an in vitro model of skin collagen fragmentation that was created and tested for the effects of antioxidant compounds. Materials and methods for preparing three-dimensional extracellular matrix (ECM) collagen lattices, for culturing skin fibroblasts and keratinocytes thereupon, and for treating such matrices with, and characterizing the effects on them of, matrix metalloproteinases (MMPs) have been described (see, e.g., Pilcher et al., 1997 J. Cell Biol. 137:1445; Notary et al., 2000 J. Cell Biol. 149:1309; Netzel-Arnett et al., 2002 J. Biol. Chem. 277:45154; Fisher et al., 2002 Arch Dermatol. 138:1462; Kang et al., 2003 J. Invest. Dermatol. 120:835; Xu et al., 2006 Am J Pathol. 169:823; Xu et al., 2006 J Biol. Chem 281:27389).
(§4) Human skin fibroblasts were cultured in three-dimensional collagen lattices, which mimicked the dermal extracellular matrix. In intact collagen lattices, dermal fibroblasts spread by attachment to the collagen, and produced relatively low levels of the collagenase known as matrix metalloproteinase-1 (MMP1). […]

[4] = test system: ERK MAP kinase; test: UV irradiation-induced activation of ERK MAP kinase in cultured human keratinocytes; conditions: pretreatment of keratinocytes with the indicated concentrations (FIG. 4)
Source text: as §1, §2

[5] = test system: matrix metalloproteinase-1 (MMP1); test: MMP1 expression by human skin fibroblasts in collagenase-fragmented three-dimensional collagen lattices; conditions: 1 nM, relative to controls (FIG. 3)
Source text: as §3, §4

[6] = exposure to MitoQ10 (FIG. 4 lower panel)
[7] = incubation of keratinocytes prior to UV irradiation (FIG. 4 upper panel)

COC1=C(OC)C(=O)C(CCCCCCCCCC[P+](c2ccccc2)(c2ccccc2)c2ccccc2)=C(C)C1=O.CS(=O)(=O)[O-] [MitoQ10 mesylate, [10-(4,5-dimethoxy-2-methyl-3,6-dioxo-1,4-cyclohexadien-1-yl)decyl] triphenylphosphonium methanesulfonate]
amount of Erk2 in the keratinocytes [1, 6]: not altered | ERK2 phosphorylation [1, 7]: significantly reduced | amount of Erk1 in the keratinocytes [2, 6]: not altered | ERK1 phosphorylation [2, 7]: significantly reduced | oxidant (ROS) levels [3]: significantly reduced | activation of ERK MAP kinase by subsequent UV irradiation [4]: substantially inhibited | matrix metalloproteinase-1 expression, MMP1 mRNA [5]: significantly reduced | matrix metalloproteinase-1 expression, MMP1 protein [5]: significantly reduced
